Data from the OligoGym collection.
Oligonucleotides are written 5' to 3', each unit as a sugar letter and its base; * is a phosphorothioate linkage, no mark a phosphodiester; rarer units and linkages stand in square brackets, end groups in braces. Plain capitals give the bases only. d = 2'-deoxy (DNA); r = 2'-OH (RNA)
Further: test concentration or dose not given here.

The substances below were run against UBE2L6 (assay: reporter assay of Huesken 2005). Settings: siRNA.
“sense rCrArCrArArCrCrArArGrArUrCrUrArCrCrArCdTdT / antisense rGrUrGrGrUrArGrArUrCrUrUrGrGrUrUrGrUrGdAdA” gave a normalised inhibition (eCFP-eYFP dual reporter) of 45.8%.
In the case of “sense rCrArCrArGrArArUrCrCrGrGrArGrCrUrGrUrUdTdT / antisense rArArCrArGrCrUrCrCrGrGrArUrUrCrUrGrUrGdTdC”, the normalised inhibition (eCFP-eYFP dual reporter) is reported as 97.8%.
Substance “sense rCrArGrCrArGrUrGrArGrArArCrUrGrGrArArGdTdT / antisense rCrUrUrCrCrArGrUrUrCrUrCrArCrUrGrCrUrGdAdT” has a normalised inhibition (eCFP-eYFP dual reporter) of 74.9%.
Work on “sense rCrArUrCrArGrCrArGrUrGrArGrArArCrUrGrGdTdT / antisense rCrCrArGrUrUrCrUrCrArCrUrGrCrUrGrArUrGdAdT” yielded a normalised inhibition (eCFP-eYFP dual reporter) of 65.7%.
“sense rCrCrArCrCrCrCrArArCrGrUrGrGrArCrGrArGdTdT / antisense rCrUrCrGrUrCrCrArCrGrUrUrGrGrGrGrUrGrGdTdA” gave a normalised inhibition (eCFP-eYFP dual reporter) of 67.6%.
“sense rCrCrArUrArCrCrUrGrCrGrGrArArCrCrUrGrUdTdT / antisense rArCrArGrGrUrUrCrCrGrCrArGrGrUrArUrGrGdGdG” showed a normalised inhibition (eCFP-eYFP dual reporter) of 88.3%.
In the case of “sense rCrCrCrArUrCrArUrCrArGrCrArGrUrGrArGrAdTdT / antisense rUrCrUrCrArCrUrGrCrUrGrArUrGrArUrGrGrGdCdA”, the normalised inhibition (eCFP-eYFP dual reporter) is reported as 74%.
“sense rCrCrCrArUrGrArUrCrArArArUrUrCrArCrArAdTdT / antisense rUrUrGrUrGrArArUrUrUrGrArUrCrArUrGrGrGdAdG” gave a normalised inhibition (eCFP-eYFP dual reporter) of 95.2%.
“sense rCrCrCrUrGrCrGrGrArUrGrGrArCrCrUrCrGrCdTdT / antisense rGrCrGrArGrGrUrCrCrArUrCrCrGrCrArGrGrGdGdC” showed a normalised inhibition (eCFP-eYFP dual reporter) of 59.7%.
“sense rCrCrGrArArGrArGrUrUrCrArCrCrCrUrCrCrGdTdT / antisense rCrGrGrArGrGrGrUrGrArArCrUrCrUrUrCrGrGdCdA” gave a normalised inhibition (eCFP-eYFP dual reporter) of 62.6%.
For “sense rCrCrGrArArUrArUrCrArGrGrGrArGrCrCrCrCdTdT / antisense rGrGrGrGrCrUrCrCrCrUrGrArUrArUrUrCrGrGdTdC”, the normalised inhibition (eCFP-eYFP dual reporter) was 50%.
Substance “sense rCrCrUrArCrCrCrGrArCrCrArArCrCrUrCrCrCdTdT / antisense rGrGrGrArGrGrUrUrGrGrUrCrGrGrGrUrArGrGdAdG” has a normalised inhibition (eCFP-eYFP dual reporter) of 55.6%.
For “sense rCrCrUrGrCrGrGrArUrGrGrArCrCrUrCrGrCrUdTdT / antisense rArGrCrGrArGrGrUrCrCrArUrCrCrGrCrArGrGdGdG”, the normalised inhibition (eCFP-eYFP dual reporter) was 81.8%.
Work on “sense rCrCrUrGrUrCrCrArGrCrGrArUrGrArUrGrCrCdTdT / antisense rGrGrCrArUrCrArUrCrGrCrUrGrGrArCrArGrGdTdT” yielded a normalised inhibition (eCFP-eYFP dual reporter) of 77.6%.
“sense rCrGrArUrGrArUrGrCrCrArArUrGrUrCrCrUrGdTdT / antisense rCrArGrGrArCrArUrUrGrGrCrArUrCrArUrCrGdCdT” was tested, and the normalised inhibition (eCFP-eYFP dual reporter) was 97.1%.
“sense rCrGrCrUrCrUrCrCrUrCrCrUrArCrCrCrGrArCdTdT / antisense rGrUrCrGrGrGrUrArGrGrArGrGrArGrArGrCrGdTdG” was tested, and the normalised inhibition (eCFP-eYFP dual reporter) was 73.7%.
In the case of “sense rCrGrGrArUrGrGrArCrCrUrCrGrCrUrGrArCrCdTdT / antisense rGrGrUrCrArGrCrGrArGrGrUrCrCrArUrCrCrGdCdA”, the normalised inhibition (eCFP-eYFP dual reporter) is reported as 71.6%.
Substance “sense rCrUrCrCrUrArCrCrCrGrArCrCrArArCrCrUrCdTdT / antisense rGrArGrGrUrUrGrGrUrCrGrGrGrUrArGrGrArGdGdA” has a normalised inhibition (eCFP-eYFP dual reporter) of 63.5%.
For “sense rCrUrGrArCrArCrArGrArArUrCrCrGrGrArGrCdTdT / antisense rGrCrUrCrCrGrGrArUrUrCrUrGrUrGrUrCrArGdCdA”, the normalised inhibition (eCFP-eYFP dual reporter) was 79.6%.
With “sense rCrUrGrCrGrGrArArCrCrUrGrUrCrCrArGrCrGdTdT / antisense rCrGrCrUrGrGrArCrArGrGrUrUrCrCrGrCrArGdGdT” the normalised inhibition (eCFP-eYFP dual reporter) was 76.1%.
Substance “sense rCrUrGrGrArGrGrCrCrCrUrCrArArUrGrUrGrCdTdT / antisense rGrCrArCrArUrUrGrArGrGrGrCrCrUrCrCrArGdGdA” has a normalised inhibition (eCFP-eYFP dual reporter) of 48.2%.
In the case of “sense rCrUrUrCrCrCrGrCrCrGrGrArGrUrArUrCrCrGdTdT / antisense rCrGrGrArUrArCrUrCrCrGrGrCrGrGrGrArArGdCdT”, the normalised inhibition (eCFP-eYFP dual reporter) is reported as 38.1%.
With “sense rCrUrUrGrCrArCrCrArArGrArCrUrUrGrCrCrAdTdT / antisense rUrGrGrCrArArGrUrCrUrUrGrGrUrGrCrArArGdGdC” the normalised inhibition (eCFP-eYFP dual reporter) was 89.6%.
For “sense rGrArGrCrCrCrCrUrGrCrGrGrArUrGrGrArCrCdTdT / antisense rGrGrUrCrCrArUrCrCrGrCrArGrGrGrGrCrUrCdCdC”, the normalised inhibition (eCFP-eYFP dual reporter) was 55.9%.
In the case of “sense rGrArUrUrUrGrCrCrUrGrCrCrCrArUrCrArUrCdTdT / antisense rGrArUrGrArUrGrGrGrCrArGrGrCrArArArUrCdTdG”, the normalised inhibition (eCFP-eYFP dual reporter) is reported as 71.3%.
Work on “sense rGrCrGrArUrGrArUrGrCrCrArArUrGrUrCrCrUdTdT / antisense rArGrGrArCrArUrUrGrGrCrArUrCrArUrCrGrCdTdG” yielded a normalised inhibition (eCFP-eYFP dual reporter) of 107%.
With “sense rGrGrArGrCrUrGrUrUrCrArGrArArArGrArArUdTdT / antisense rArUrUrCrUrUrUrCrUrGrArArCrArGrCrUrCrCdGdG” the normalised inhibition (eCFP-eYFP dual reporter) was 108%.
In the case of “sense rGrGrArGrUrArUrCrCrGrUrUrCrArArGrCrCrUdTdT / antisense rArGrGrCrUrUrGrArArCrGrGrArUrArCrUrCrCdGdG”, the normalised inhibition (eCFP-eYFP dual reporter) is reported as 84.6%.
Substance “sense rGrGrArUrGrGrArCrCrUrCrGrCrUrGrArCrCrUdTdT / antisense rArGrGrUrCrArGrCrGrArGrGrUrCrCrArUrCrCdGdC” has a normalised inhibition (eCFP-eYFP dual reporter) of 80.5%.
In the case of “sense rGrGrCrArCrGrCrUrCrUrCrCrUrCrCrUrArCrCdTdT / antisense rGrGrUrArGrGrArGrGrArGrArGrCrGrUrGrCrCdAdC”, the normalised inhibition (eCFP-eYFP dual reporter) is reported as 62.5%.
Substance “sense rGrUrCrCrUrGrGrUrGrUrGrGrCrArCrGrCrUrCdTdT / antisense rGrArGrCrGrUrGrCrCrArCrArCrCrArGrGrArCdAdT” has a normalised inhibition (eCFP-eYFP dual reporter) of 74.2%.
“sense rGrUrGrArArUrArGrArCrCrGrArArUrArUrCrAdTdT / antisense rUrGrArUrArUrUrCrGrGrUrCrUrArUrUrCrArCdCdA” showed a normalised inhibition (eCFP-eYFP dual reporter) of 89.9%.
Work on “sense rGrUrGrGrCrArCrGrCrUrCrUrCrCrUrCrCrUrAdTdT / antisense rUrArGrGrArGrGrArGrArGrCrGrUrGrCrCrArCdAdC” yielded a normalised inhibition (eCFP-eYFP dual reporter) of 96.9%.
In the case of “sense rGrUrUrCrArCrCrCrUrCrCrGrArUrUrCrGrGrAdTdT / antisense rUrCrCrGrArArUrCrGrGrArGrGrGrUrGrArArCdTdC”, the normalised inhibition (eCFP-eYFP dual reporter) is reported as 61.1%.
For “sense rUrArCrCrArCrCrCrCrArArCrGrUrGrGrArCrGdTdT / antisense rCrGrUrCrCrArCrGrUrUrGrGrGrGrUrGrGrUrAdGdA”, the normalised inhibition (eCFP-eYFP dual reporter) was 37.4%.
“sense rUrCrArArGrCrCrUrCrCrCrArUrGrArUrCrArAdTdT / antisense rUrUrGrArUrCrArUrGrGrGrArGrGrCrUrUrGrAdAdC” gave a normalised inhibition (eCFP-eYFP dual reporter) of 86.7%.
In the case of “sense rUrCrArArUrGrUrGrCrUrGrGrUrGrArArUrArGdTdT / antisense rCrUrArUrUrCrArCrCrArGrCrArCrArUrUrGrAdGdG”, the normalised inhibition (eCFP-eYFP dual reporter) is reported as 69.1%.
Work on “sense rUrCrArUrCrArGrCrArGrUrGrArGrArArCrUrGdTdT / antisense rCrArGrUrUrCrUrCrArCrUrGrCrUrGrArUrGrAdTdG” yielded a normalised inhibition (eCFP-eYFP dual reporter) of 61.3%.
“sense rUrCrCrUrCrCrUrArCrCrCrGrArCrCrArArCrCdTdT / antisense rGrGrUrUrGrGrUrCrGrGrGrUrArGrGrArGrGrAdGdA” showed a normalised inhibition (eCFP-eYFP dual reporter) of 49.5%.
Substance “sense rUrCrCrUrGrGrArGrGrCrCrCrUrCrArArUrGrUdTdT / antisense rArCrArUrUrGrArGrGrGrCrCrUrCrCrArGrGrAdCdT” has a normalised inhibition (eCFP-eYFP dual reporter) of 74.2%.
For “sense rUrCrUrArCrCrArCrCrCrCrArArCrGrUrGrGrAdTdT / antisense rUrCrCrArCrGrUrUrGrGrGrGrUrGrGrUrArGrAdTdC”, the normalised inhibition (eCFP-eYFP dual reporter) was 53%.
For “sense rUrCrUrCrCrUrCrCrUrArCrCrCrGrArCrCrArAdTdT / antisense rUrUrGrGrUrCrGrGrGrUrArGrGrArGrGrArGrAdGdC”, the normalised inhibition (eCFP-eYFP dual reporter) was 79.9%.
With “sense rUrGrArCrArCrArGrArArUrCrCrGrGrArGrCrUdTdT / antisense rArGrCrUrCrCrGrGrArUrUrCrUrGrUrGrUrCrAdGdC” the normalised inhibition (eCFP-eYFP dual reporter) was 54.8%.
With “sense rUrGrCrCrGrArArGrArGrUrUrCrArCrCrCrUrCdTdT / antisense rGrArGrGrGrUrGrArArCrUrCrUrUrCrGrGrCrAdTdT” the normalised inhibition (eCFP-eYFP dual reporter) was 59.9%.
Substance “sense rUrGrGrArArGrCrCrUrUrGrCrArCrCrArArGrAdTdT / antisense rUrCrUrUrGrGrUrGrCrArArGrGrCrUrUrCrCrAdGdT” has a normalised inhibition (eCFP-eYFP dual reporter) of 77.7%.
In the case of “sense rUrGrGrUrGrUrGrGrCrArCrGrCrUrCrUrCrCrUdTdT / antisense rArGrGrArGrArGrCrGrUrGrCrCrArCrArCrCrAdGdG”, the normalised inhibition (eCFP-eYFP dual reporter) is reported as 89.5%.
In the case of “sense rUrGrUrGrCrUrGrGrUrGrArArUrArGrArCrCrGdTdT / antisense rCrGrGrUrCrUrArUrUrCrArCrCrArGrCrArCrAdTdT”, the normalised inhibition (eCFP-eYFP dual reporter) is reported as 59%.
Substance “sense rUrUrCrArArGrCrCrUrCrCrCrArUrGrArUrCrAdTdT / antisense rUrGrArUrCrArUrGrGrGrArGrGrCrUrUrGrArAdCdG” has a normalised inhibition (eCFP-eYFP dual reporter) of 71.2%.
“sense rUrUrCrArGrArArArGrArArUrGrCrCrGrArArGdTdT / antisense rCrUrUrCrGrGrCrArUrUrCrUrUrUrCrUrGrArAdCdA” was tested, and the normalised inhibition (eCFP-eYFP dual reporter) was 57.7%.
“sense rUrUrCrCrCrGrCrCrGrGrArGrUrArUrCrCrGrUdTdT / antisense rArCrGrGrArUrArCrUrCrCrGrGrCrGrGrGrArAdGdC” showed a normalised inhibition (eCFP-eYFP dual reporter) of 43%.

The substances below were run against NOG (assay: reporter assay of Huesken 2005). Settings: siRNA.
In the case of “sense rArCrArUrUrCrUrGrCrCrCrCrGrUrGrCrUrGrUdTdT / antisense rArCrArGrCrArCrGrGrGrGrCrArGrArArUrGrUdCdT”, the normalised inhibition (eCFP-eYFP dual reporter) is reported as 60%.
“sense rArCrCrUrCrArUrCrGrArArCrArCrCrCrArGrAdTdT / antisense rUrCrUrGrGrGrUrGrUrUrCrGrArUrGrArGrGrUdCdC” was tested, and the normalised inhibition (eCFP-eYFP dual reporter) was 102%.
